# Test results reported in patent publication US20220256854A1, “PLANT TREATMENT COMPOSITION” (Croda International Plc, priority 2019, published 2022).
# Key:
# Type in all cases: in vivo
# Brachiaria decumbens [1] = assay: Glufosinate absorption in Brachiaria decumbens with Mn formulations (Example 1, Study 1); conditions: glufosinate 2 l/ha; Mn formulation at 100 g/ha Mn where applied; 36 hours after application
# Procedure: (§1) Studies were conducted to evaluate the effect of an Mn formulation containing manganese on the absorption of glufosinate (Study 1) and glyphosate (Study 2) using Brachiaria decumbens as a model weed species.
# Study 1. Seed of Brachiaria decumbens were planted into pots in a greenhouse during January 2015. This experiment was designed as a randomized complete block with six replications. Each plant was sprayed in a spray chamber with one of six treatments (Table 1) 19 days after planting.
# The amount of glufosinate on the plant surface (not absorbed) and that penetrated plant tissue (absorbed) was measured 36 hours after application of a treatment using chromatography and spectrometry.
# [2] = test system: individual grass and broadleaf weed species; assay: Field trial, glufosinate with Formulation A, weed control, average over five weed species (Example 4); conditions: Formulation A @ 1 l/ha where applied, average of five weed species
# Procedure: (§2) A study was conducted to evaluate the effect of an Mn formulation on glufosinate efficacy, as measured by the control of individual grass and broadleaf weed species.
# (§3) The trial was designed as a randomized complete block with three replications of four treatments (Table 9). The trial was planted at one location in Brazil during March 2016. Weed control was assessed 7, 14, and 28 daa.
# Cenchrus echinatus [3] = assay: Field trial, glufosinate with Formulation A, weed control (Example 4); conditions: Formulation A @ 1 l/ha where applied, mean of 7, 14, 28 daa
# Procedure: as §2, §3
# Ipomoea acuminate [4] = assay: as above; conditions: Formulation A @ 1 l/ha where applied, mean of 7, 14, 28 daa
# Procedure: as §2, §3
# Brachiaria decumbens [5] = assay: as above; conditions: Formulation A @ 1 l/ha where applied, mean of 7, 14, 28 daa
# Procedure: as §2, §3
# Brachiaria plantaginea [6] = assay: as above; conditions: Formulation A @ 1 l/ha where applied, mean of 7, 14, 28 daa
# Procedure: as §2, §3
# Digitaria horizontalis [7] = assay: as above; conditions: Formulation A @ 1 l/ha where applied, mean of 7, 14, 28 daa
# Procedure: as §2, §3
# weed species [8] = assay: Field trial, glyphosate with K formulation, weed control (Example 5, Study 3); conditions: Glyphosate @ 2 l/ha, Formulation @ 5 l/ha where applied
# Procedure: (§4) Three studies were conducted to evaluate the effect of a K formulation on glyphosate efficacy, as measured by the control of weed species.
# Study 3. The trial was designed as a randomized complete block with two replications of six treatments (Table 15). The trial was planted at one location in Brazil during 2011. Weed control was assessed 14 and 25 daa.
# Grass weeds = assay: Field trial, glyphosate with Mn formulation, control of grass weeds (Example 2); conditions: glyphosate 1 l/ha; V2 soybean growth stage; 7 daa; six locations in Brazil
# Procedure: (§5) A study was carried out to evaluate the effect of an Mn formulation on the efficacy of glyphosate, as measured by the control of broadleaf and grass weed species.
# (§6) The trial was designed as a randomized complete block with six replications of five treatments (Table 5). The trial was planted at each of six locations in Brazil during the 2015 season. All treatments were applied at the V2 soybean growth stage using backpack sprayers. Soybeans were sown at a rate consistent with locally recommended practices into plots that were approximately 4 m long and 5 m wide.
# (§7) Data collected from a 1 m^2 area of each plot included the number of broadleaf and grass weeds, by genus and species, at the V2 soybean growth stage immediately prior to treatment application. The number of dead/damaged and undamaged weeds, by genus and species, was collected from the same 1 m^2 area of each plot 7 daa of a treatment. Treatment 2 (glyphosate alone) was used as the control.
# Cenchrus echinatus [9] = assay: Field trial, glyphosate with Formulation A, weed control (Example 3); conditions: Formulation A @ 1 l/ha where applied, mean of 7, 14, 28 daa
# Procedure: (§8) A study was conducted to evaluate the effect of an Mn formulation on glyphosate efficacy, as measured by the control of individual grass and broadleaf weed species.
# (§9) The trial was designed as a randomized complete block with three replications of four treatments (Table 7). The trial was planted at one location in Brazil during March 2016. Weed control was assessed 7, 14, and 28 daa.
# Amaranthus retroflexus = assay: as above; conditions: Formulation A @ 1 l/ha where applied, mean of 7, 14, 28 daa
# Procedure: as §8, §9
# Ipomoea acuminate [10] = assay: as above; conditions: Formulation A @ 1 l/ha where applied, mean of 7, 14, 28 daa
# Procedure: as §8, §9
# Brachiaria decumbens [11] = assay: as above; conditions: Formulation A @ 1 l/ha where applied, mean of 7, 14, 28 daa
# Procedure: as §8, §9
# Brachiaria plantaginea [12] = assay: as above; conditions: Formulation A @ 1 l/ha where applied, mean of 7, 14, 28 daa
# Procedure: as §8, §9
# Digitaria horizontalis [13] = assay: as above; conditions: Formulation A @ 1 l/ha where applied, mean of 7, 14, 28 daa
# Procedure: as §8, §9
# Euphorbia heterophylla = assay: as above; conditions: Formulation A @ 1 l/ha where applied, mean of 7, 14, 28 daa
# Procedure: as §8, §9
# Brachiaria decumbens [14] = assay: Glyphosate absorption in Brachiaria decumbens with Mn formulations (Example 1, Study 2); conditions: glyphosate 3.5 l/ha; Mn formulation at 100 g/ha Mn where applied; four days after application
# Procedure: as §1
# Study 2. Seed of Brachiaria decumbens were planted into pots in a greenhouse during January 2015. This experiment was designed as a randomized complete block with six replications. Each plant was sprayed in a spray chamber with one of six treatments (Table 3) 25 days after planting.
# The amount of glyphosate on the plant surface (not absorbed) and that penetrated plant tissue (absorbed) was measured four days after application (daa) of a treatment using chromatography and spectrometry.
# Broadleaf weeds = assay: Field trial, glyphosate with Mn formulation, control of broadleaf weeds (Example 2); conditions: glyphosate 1 l/ha; V2 soybean growth stage; 7 daa; six locations in Brazil
# Procedure: as §5, §6, §7
# [15] = test system: individual grass and broadleaf weed species; assay: Field trial, glyphosate with Formulation A, weed control, average over seven weed species (Example 3); conditions: Formulation A @ 1 l/ha where applied, average of seven weed species
# Procedure: as §8, §9
# weed species [16] = assay: Field trial, glyphosate with K formulation, weed control (Example 5, Study 1); conditions: Glyphosate @ 2 l/ha, no formulation
# Procedure: as §4
# Study 1. The trial was designed as a randomized complete block with two replications of five treatments (Table 11). The trial was planted at one location in Brazil during 2011. Weed control was assessed 14 and 25 daa.
# weed species [17] = assay: Field trial, glyphosate with K formulation, weed control (Example 5, Study 2); conditions: Glyphosate @ 2 l/ha, Formulation @ 5 l/ha where applied
# Procedure: as §4
# Study 2. The trial was designed as a randomized complete block with two replications of six treatments (Table 13). The trial was planted at one location in Brazil during 2011. Weed control was assessed 14 and 25 daa.
compound,measurement,setting,value
"CP(=O)(O)CCC(N)C(=O)O (centres unmarked) [Glufosinate, glufosinate]",Glufosinate Absorbed (%),Brachiaria decumbens [1],24.0%
same,Weed control (%) Ave,[2]; Glufosinate @ 1.5 l/ha,78.9%
same,Weed control (%) Ave,[2]; Glufosinate @ 2.5 l/ha,88.2%
same,Weed control (%) CCHEC,Cenchrus echinatus [3]; Glufosinate @ 1.5 l/ha,62.8%
same,Weed control (%) CCHEC,Cenchrus echinatus [3]; Glufosinate @ 2.5 l/ha,78.7%
same,Weed control (%) IPOAC,Ipomoea acuminate [4]; Glufosinate @ 1.5 l/ha,96.7%
same,Weed control (%) IPOAC,Ipomoea acuminate [4]; Glufosinate @ 2.5 l/ha,100.0%
same,Weed control (%) BRADC,Brachiaria decumbens [5]; Glufosinate @ 1.5 l/ha,89.3%
same,Weed control (%) BRADC,Brachiaria decumbens [5]; Glufosinate @ 2.5 l/ha,91.1%
same,Weed control (%) BRAPL,Brachiaria plantaginea [6]; Glufosinate @ 1.5 l/ha,78.6%
same,Weed control (%) BRAPL,Brachiaria plantaginea [6]; Glufosinate @ 2.5 l/ha,88.2%
same,Weed control (%) DIGHO,Digitaria horizontalis [7]; Glufosinate @ 1.5 l/ha,67.0%
same,Weed control (%) DIGHO,Digitaria horizontalis [7]; Glufosinate @ 2.5 l/ha,82.9%
"O=C(O)CNCP(=O)(O)O [Glyphosate, glyphosate]",Weed control (%) 14 daa,weed species [8]; 14 daa,85%
same,Weed control (%) 25 daa,weed species [8]; 25 daa,90%
same,Weed control (%) Grass weeds,Grass weeds,97.7%
same,Weed control (%) CCHEC,Cenchrus echinatus [9]; Glyphosate @ 1 l/ha,95.0%
same,Weed control (%) CCHEC,Cenchrus echinatus [9]; Glyphosate @ 2 l/ha,98.7%
same,Weed control (%) AMARE,Amaranthus retroflexus; Glyphosate @ 1 l/ha,69.6%
same,Weed control (%) AMARE,Amaranthus retroflexus; Glyphosate @ 2 l/ha,84.7%
same,Weed control (%) IPOA,Ipomoea acuminate [10]; Glyphosate @ 1 l/ha,34.8%
same,Weed control (%) IPOA,Ipomoea acuminate [10]; Glyphosate @ 2 l/ha,52.6%
same,Weed control (%) BRADC,Brachiaria decumbens [11]; Glyphosate @ 1 l/ha,83.0%
same,Weed control (%) BRADC,Brachiaria decumbens [11]; Glyphosate @ 2 l/ha,90.2%
same,Weed control (%) BRAPL,Brachiaria plantaginea [12]; Glyphosate @ 1 l/ha,91.2%
same,Weed control (%) BRAPL,Brachiaria plantaginea [12]; Glyphosate @ 2 l/ha,95.9%
same,Weed control (%) DIGHO,Digitaria horizontalis [13]; Glyphosate @ 1 l/ha,96.3%
same,Weed control (%) DIGHO,Digitaria horizontalis [13]; Glyphosate @ 2 l/ha,99.0%
same,Weed control (%) EPHHL,Euphorbia heterophylla; Glyphosate @ 1 l/ha,65.4%
same,Weed control (%) EPHHL,Euphorbia heterophylla; Glyphosate @ 2 l/ha,77.4%
same,Glyphosate Absorbed (%),Brachiaria decumbens [14],21.0%
same,Weed control (%) Broadleaf weeds,Broadleaf weeds,83.8%
same,Weed control (%) Ave,[15]; Glyphosate @ 1 l/ha,76.5%
same,Weed control (%) Ave,[15]; Glyphosate @ 2 l/ha,85.5%
same,Weed control (%) 14 daa,weed species [16]; 14 daa,85%
same,Weed control (%) 25 daa,weed species [16]; 25 daa,96.5%
same,Weed control (%) 14 daa,weed species [17]; 14 daa,82.5%
same,Weed control (%) 25 daa,weed species [17]; 25 daa,96.5%
